# Reference: patent US10897901B2, “Herbicidal composition” (FMC Corporation, priority 2007, dated 2021)
# How the values were obtained:
# Type in all cases: in vivo
# [1] = test system: Blackseed Plantain (Plantago rugelii); assay: Example 1 post-emergent turf plot test, plantain; conditions: 0.75 lb ai/acre
# Method: The experimental design used randomized plots with post-emergent treatment and three replications per test trial. The size of each experimental plot was 4 feet by 6 feet. The application of each test composition was performed with pressurized back-pack sprayers, calibrated to spray 200 gallons per acre. Test compositions containing sulfentrazone (DISMISS™ Turf Herbicide), quniclorac, (FACET® 75 DF herbicide) or a mixture of sulfentrazone and quinclorac in a 1:3 ratio, prepared as described above, were diluted with water to provide the appropriate test rate concentrations.
# The control of weeds was evaluated in each experimental plot from 7 to 41 days after treatment (DAT) of each test rate. The results, shown as an average of the replications, were compared with results observed in untreated control plots in the same trials.
# [2] = test system: yellow nutsedge (Cyperus esculentusi); assay: Example 3 post-emergence greenhouse pot test, nutsedge
# Method: Test compositions containing sulfentrazone (DISMISS™ Turf Herbicide), quniclorac, (DRIVE® 75 DF Herbicide) or mixture of sulfentrazone and quinclorac in a three to one ratio, prepared as described above, were diluted with water to provide the appropriate test rate concentrations. A nonionic surfactant (0.25%) was added to each test solution.
# The test weeds include Red River crabgrass (Digitaria ciliaris) and yellow nutsedge (Cyperus esculentusi).
# (§1) For post-emergence testing, three disposable 3 inch square pots for each rate of application of each herbicide were filled with a soil, comprised of peat moss, vermiculite, bark ash, pine bark, limestone and a wetting agent, to which 8 to 10 seeds were planted. The pots were placed in a greenhouse and watered daily, thus allowing the seeds to germinate and the foliage to develop.
# (§2) Pots designated for treatment were placed on a conveyor belt and the conveyor belt fed under a spray nozzle mounted about ten inches above the foliage. The spray of herbicidal solution was commenced and once stabilized; the pots were passed under the spray at a speed to receive a coverage equivalent of 30 gallons per acre. The application rates are those shown in Table 3 below for the individual herbicidal solutions and the mixture of sulfentrazone and quinclorac. The post-emergence pots were immediately placed in the green-house and not watered until 24 hours after treatment with the test solution. Thereafter they were regularly watered at ground level. The control of weeds was evaluated in each experimental test from 1 to 22 days after treatment (DAT). The results, shown as an average of the replications, were compared with results observed in untreated control pots in the same tests.
# (§3) Percent control was determined by a method similar to the 0 to 100 rating system disclosed in “Research Methods in Weed Science,” 2nd ed., B. Truelove, Ed.; Southern Weed Science Society; Auburn University, Auburn, Ala., 1977.
# [3] = test system: Chickweed (Stellaria media); assay: Example 4 post-emergence greenhouse pot test, chickweed
# Method: (§4) Test compositions containing sulfentrazone (75 DF formulation), quniclorac, (DRIVE® 75 DF Herbicide) or mixtures of sulfentrazone and quinclorac at ratios of 1:1 to 1:5, were diluted with water to provide the appropriate test rate concentrations. A nonionic surfactant (0.25%) was added to each test solution. The test weeds include crabgrass (Digitaria sp), Chickweed (Stellaria media), Hemp Sesbania (Sesbania exaltata), Kochia (Kochia scoparia), Ivyleaf Morningglory (Ipomoea hederacea), Redroot Pigweed (Amaranthus retroflexus) and yellow nutsedge (Cyperus esculentusi).
# as §1, with “develop for 22 days, 3 months for Kochia.” for “develop.”
# as §2, with “Table 4” for “Table 3”, “from 2” for “from 1”, “to 20” for “to 22”
# as §3
# [4] = test system: Redroot Pigweed (Amaranthus retroflexus); assay: Example 4 post-emergence greenhouse pot test, pigweed
# Method: as §4
# as §1, with “develop for 22 days, 3 months for Kochia.” for “develop.”
# as §2, with “Table 4” for “Table 3”, “from 2” for “from 1”, “to 20” for “to 22”
# as §3
smiles,measurement,setting,value
"O=C(O)c1c(Cl)ccc2cc(Cl)cnc12 [B, 3,7-dichloro-8-quinolinecarboxylic acid]",Percent Control,[1]; 7 DAT,100%
same,Percent Control,[1]; 14 DAT,100%
same,Percent Control,[1]; 21 DAT,100%
same,Percent Control,[1]; 28 DAT,100%
same,Percent Control,"[2]; 1-5 leaf stage, 7 days old, 0.375 lb ai/acre, 1 DAT",0%
same,Percent Control,"[2]; 1-5 leaf stage, 7 days old, 0.375 lb ai/acre, 3 DAT",0%
same,Percent Control,"[2]; 1-5 leaf stage, 7 days old, 0.375 lb ai/acre, 7 DAT",0%
same,Percent Control,"[2]; 1-5 leaf stage, 7 days old, 0.375 lb ai/acre, 14 DAT",0%
same,Percent Control,"[2]; 1-5 leaf stage, 7 days old, 0.375 lb ai/acre, 21 DAT",0%
same,Percent Control,"[2]; 1-5 leaf stage, 7 days old, 0.75 lb ai/acre, 1 DAT",0%
same,Percent Control,"[2]; 1-5 leaf stage, 7 days old, 0.75 lb ai/acre, 3 DAT",0%
same,Percent Control,"[2]; 1-5 leaf stage, 7 days old, 0.75 lb ai/acre, 7 DAT",0%
same,Percent Control,"[2]; 1-5 leaf stage, 7 days old, 0.75 lb ai/acre, 14 DAT",0%
same,Percent Control,"[2]; 1-5 leaf stage, 7 days old, 0.75 lb ai/acre, 21 DAT",0%
same,Percent Control,"[2]; 1-5 leaf stage, 7 days old, 1.0 lb ai/acre, 1 DAT",0%
same,Percent Control,"[2]; 1-5 leaf stage, 7 days old, 1.0 lb ai/acre, 3 DAT",0%
same,Percent Control,"[2]; 1-5 leaf stage, 7 days old, 1.0 lb ai/acre, 7 DAT",0%
same,Percent Control,"[2]; 1-5 leaf stage, 7 days old, 1.0 lb ai/acre, 14 DAT",0%
same,Percent Control,"[2]; 1-5 leaf stage, 7 days old, 1.0 lb ai/acre, 21 DAT",0%
same,Percent Control,"[2]; 5-7 leaves, cut to 6 cm tall, 28 days old, 0.375 lb ai/acre, 1 DAT",0%
same,Percent Control,"[2]; 5-7 leaves, cut to 6 cm tall, 28 days old, 0.375 lb ai/acre, 3 DAT",5%
same,Percent Control,"[2]; 5-7 leaves, cut to 6 cm tall, 28 days old, 0.375 lb ai/acre, 7 DAT",5%
same,Percent Control,"[2]; 5-7 leaves, cut to 6 cm tall, 28 days old, 0.375 lb ai/acre, 14 DAT",5%
same,Percent Control,"[2]; 5-7 leaves, cut to 6 cm tall, 28 days old, 0.375 lb ai/acre, 21 DAT",0%
same,Percent Control,"[2]; 5-7 leaves, cut to 6 cm tall, 28 days old, 0.75 lb ai/acre, 1 DAT",0%
same,Percent Control,"[2]; 5-7 leaves, cut to 6 cm tall, 28 days old, 0.75 lb ai/acre, 3 DAT",0%
same,Percent Control,"[2]; 5-7 leaves, cut to 6 cm tall, 28 days old, 0.75 lb ai/acre, 7 DAT",2%
same,Percent Control,"[2]; 5-7 leaves, cut to 6 cm tall, 28 days old, 0.75 lb ai/acre, 14 DAT",2%
same,Percent Control,"[2]; 5-7 leaves, cut to 6 cm tall, 28 days old, 0.75 lb ai/acre, 21 DAT",0%
same,Percent Control,"[2]; 5-7 leaves, cut to 6 cm tall, 28 days old, 1.0 lb ai/acre, 1 DAT",0%
same,Percent Control,"[2]; 5-7 leaves, cut to 6 cm tall, 28 days old, 1.0 lb ai/acre, 3 DAT",5%
same,Percent Control,"[2]; 5-7 leaves, cut to 6 cm tall, 28 days old, 1.0 lb ai/acre, 7 DAT",5%
same,Percent Control,"[2]; 5-7 leaves, cut to 6 cm tall, 28 days old, 1.0 lb ai/acre, 14 DAT",5%
same,Percent Control,"[2]; 5-7 leaves, cut to 6 cm tall, 28 days old, 1.0 lb ai/acre, 21 DAT",0%
same,Percent Control,"[3]; 0.25 lb ai/acre, 2 DAT",0%
same,Percent Control,"[3]; 0.25 lb ai/acre, 7 DAT",0%
same,Percent Control,"[3]; 0.25 lb ai/acre, 14 DAT",0%
same,Percent Control,"[3]; 0.25 lb ai/acre, 20 DAT",0%
same,Percent Control,"[3]; 0.5 lb ai/acre, 2 DAT",0%
same,Percent Control,"[3]; 0.5 lb ai/acre, 7 DAT",0%
same,Percent Control,"[3]; 0.5 lb ai/acre, 14 DAT",0%
same,Percent Control,"[3]; 0.5 lb ai/acre, 20 DAT",0%
same,Percent Control,"[3]; 0.75 lb ai/acre, 2 DAT",0%
same,Percent Control,"[3]; 0.75 lb ai/acre, 7 DAT",0%
same,Percent Control,"[3]; 0.75 lb ai/acre, 14 DAT",0%
same,Percent Control,"[3]; 0.75 lb ai/acre, 20 DAT",0%
same,Percent Control,"[3]; 1.0 lb ai/acre, 2 DAT",0%
same,Percent Control,"[3]; 1.0 lb ai/acre, 7 DAT",5%
same,Percent Control,"[3]; 1.0 lb ai/acre, 14 DAT",5%
same,Percent Control,"[3]; 1.0 lb ai/acre, 20 DAT",5%
same,Percent Control,"[3]; 1.25 lb ai/acre, 2 DAT",5%
same,Percent Control,"[3]; 1.25 lb ai/acre, 7 DAT",5%
same,Percent Control,"[3]; 1.25 lb ai/acre, 14 DAT",2%
same,Percent Control,"[3]; 1.25 lb ai/acre, 20 DAT",5%
same,Percent Control,"[4]; 0.25 lb ai/acre, 2 DAT",10%
same,Percent Control,"[4]; 0.25 lb ai/acre, 7 DAT",10%
same,Percent Control,"[4]; 0.25 lb ai/acre, 14 DAT",10%
same,Percent Control,"[4]; 0.25 lb ai/acre, 20 DAT",10%
same,Percent Control,"[4]; 0.5 lb ai/acre, 2 DAT",0%
same,Percent Control,"[4]; 0.5 lb ai/acre, 7 DAT",0%
same,Percent Control,"[4]; 0.5 lb ai/acre, 14 DAT",0%
same,Percent Control,"[4]; 0.5 lb ai/acre, 20 DAT",0%
same,Percent Control,"[4]; 0.75 lb ai/acre, 2 DAT",0%
same,Percent Control,"[4]; 0.75 lb ai/acre, 7 DAT",0%
same,Percent Control,"[4]; 0.75 lb ai/acre, 14 DAT",0%
same,Percent Control,"[4]; 0.75 lb ai/acre, 20 DAT",0%
same,Percent Control,"[4]; 1.0 lb ai/acre, 2 DAT",0%
same,Percent Control,"[4]; 1.0 lb ai/acre, 7 DAT",0%
same,Percent Control,"[4]; 1.0 lb ai/acre, 14 DAT",0%
same,Percent Control,"[4]; 1.0 lb ai/acre, 20 DAT",0%
same,Percent Control,"[4]; 1.25 lb ai/acre, 2 DAT",10%
same,Percent Control,"[4]; 1.25 lb ai/acre, 7 DAT",10%
same,Percent Control,"[4]; 1.25 lb ai/acre, 14 DAT",10%
same,Percent Control,"[4]; 1.25 lb ai/acre, 20 DAT",10%
